For experiment [1], the system named is dog STING (dSTING). Put plainly: Dog differential scanning fluorimetry (DSF) assay, thermal shift of dog STING protein. The class given is binding. The following applies: DSF (dDSF); 100 μM compound, 3 μM dog STING protein; Tm with ligand minus Tm of protein alone. The method in brief:
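Dog STING residues 149–375, His-tag removed by TEV, tested at 3 μM with 100 μM compound, 5× SYPRO Orange and 2% DMSO in 20 mM Tris, 150 mM NaCl, pH 7.5. Heated 15–95 °C in 0.5 °C steps. Tm from Boltzmann fit, duplicates averaged; ΔTm relative to protein alone.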

Experiment [2] addresses STING (Canis lupus familiaris, UniProt A0A8I3MH52). Put plainly: Dog whole blood (dWB) assay, IFNb secretion by ELISA. The class given is cell-based. Conditions: canine Interferon-beta (IFNb) ELISA, 4 h incubation at 37° C. On the procedure: For the detection of STING activation in physiological environment dog whole blood (dWB) was stimulated by the cyclic dinucleotide cGAMP or a test compound. Pathway activity was monitored by measuring the IFNb production.
Compounds were delivered as 10 mM DMSO solution, diluted and transferred by using an Echo acoustic dispenser to the 384 well assay plate (Greiner #781182), pre-filled with 10 μl 1×HBSS in each well (10×HBSS (+Ca/+Mg), #14065-049, Gibco). Typically, 8 concentrations were used with the highest concentration at 10 μM in the final assay volume followed by approximately 1:4 dilution steps. DMSO concentration was set to 0.1% in the final assay volume. The 384-well assay plate contained 20 test compounds and DMSO in control and cGAMP standard wells. The dog whole blood was collected as Na-Citrate blood (e.g., 3.8% in Monovettes from Sarstedt) and kept at 4° C. overnight until use in the assay. 80 μl of the whole blood samples were transferred to each well of the 384-well assay plates filled with compound/1×HBSS. Blood plates were kept at room temperature for 60 minutes and continuous shaking with 450 rpm, covered with the lid, but not sealed. A 10×cGAMP assay solution was diluted from a 2 mM stock solution in 1×HBSS immediately before use at room temperature. 10 μl of the 10×cGAMP/HBSS were added to the high control wells, whereas HBSS only was added to all compound and low control wells. After covering assay plates with the lid, blood plates were kept for a 4 h incubation at 37° C. in the incubator, without shaking. For the detection of IFNb in dog plasma the ELISA Kit for Canine Interferon Beta (Biotrend #SEA222Ca) was used. Whole blood assay plates were centrifuged at 1000 g for 10 minutes at 8° C. […] was transferred with a 96 well pipetting robotics from the 384 well whole blood plate to the corresponding 96 well ELISA plate, pre-filled with 60 μl assay diluent in each well. Plates were sealed with microplate seals and kept at 4° C. overnight again. ELISA plates were brought to room temperature, followed by a 1 h incubation at 37° C. in the incubator. Detection Reagent A working solution was prepared by diluting Detection Reagent A 1:100 in Assay Reagent A. Liquid was then removed from the 96 well ELISA plate to add 100 μL Detection Reagent A working solution to each well. ELISA plates were covered with the plate sealer and incubated for 1 hour at 37° C. in the incubator. The 1× Wash buffer was prepared by diluting the 30× Wash Buffer Concentrate in H2O. Detection Reagent B working solution was prepared by diluting Detection Reagent B 1:100 in Assay Reagent B. The ELISA plates were washed three times with 350 μl wash buffer and afterwards inverted and blotted against absorbent paper to remove any liquid. 100 μL of Detection Reagent B working solution was added to each well of the ELISA plates, which are then covered with the plate sealer and incubated for 30 minutes at 37° C. in the incubator. After incubation the ELISA assay plates were washed five times with 350 μl wash buffer and were again inverted and blotted against absorbent paper to remove any remaining liquid. 90 μL of TMB Substrate was added to each well of the ELISA plates, which were then covered with the plate sealer and incubated for 15 minutes at 37° C. in the incubator. The reaction was stopped by adding 50 μL stop solution and absorbance was measured at 450 nm immediately.
For data evaluation and calculation, % control calculation of each well was based on the mean of high (cGAMP stimulated control) and mean of low (unstimulated control) controls by using the following standard 4 parameter logistic regression formula:
[y=(a−d)/(1+(x/c)^b)+d] • a=low value, • d=high value, • x=conc M, • c=EC50 M, • b=slope. Dog Liver Microsome (dLM) Assay
(An ELISA detects its analyte on a solid surface through an enzyme-linked reagent.)

Chain of STING (A0A8I3MH52 1-374): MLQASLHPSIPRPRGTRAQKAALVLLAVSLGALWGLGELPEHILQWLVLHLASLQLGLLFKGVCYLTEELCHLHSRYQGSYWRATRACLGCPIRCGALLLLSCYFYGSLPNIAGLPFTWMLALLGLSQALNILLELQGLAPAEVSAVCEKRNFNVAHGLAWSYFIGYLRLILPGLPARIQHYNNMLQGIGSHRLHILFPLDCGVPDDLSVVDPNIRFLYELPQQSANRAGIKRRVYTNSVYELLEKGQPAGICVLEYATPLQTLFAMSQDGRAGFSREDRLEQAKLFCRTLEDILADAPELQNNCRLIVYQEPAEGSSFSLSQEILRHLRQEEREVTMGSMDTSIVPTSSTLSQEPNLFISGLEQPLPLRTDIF

`Cc1cccc2c(-c3cccc4nn(C)c(F)c34)nn(-c3ccc(N4C[C@@H]5C[C@H]4C[C@H]5C(=O)O)nc3)c12` [Example 73-2, (1S,4R,5R)-2-(5-{3″-fluoro-2″,7-dimethyl-1H,2″H-[3,4″-biindazol]-1-yl}pyridin-2-yl)-2-azabicyclo[2.2.1]heptane-5-carboxylic acid]: the “Delta TM” value in experiment [1] came to 33.3 °C. Further, in experiment [2], the EC50 (as a rule, the concentration at which the effect is half-maximal) was determined as 232 nM.
`CC(=O)N1CCN(c2ccc(-n3nc(-c4cccc5nn(C)c(F)c45)c4ccc(F)c(C)c43)cn2)CC1` [Example 66, 1-[4-(5-{5″,6-difluoro-2″,7-dimethyl-1H,2″H-[3,4″-biindazol]-1-yl}pyridin-2-yl)piperazin-1-yl]ethan-1-one]: the “Delta TM” value in experiment [1] was found to be 25.8 °C. In experiment [2], this molecule had an EC50 of 179 nM.
In the case of `CC(=O)N1CCN(c2ccc(-n3nc(-c4c(F)ccc5nn(C)cc45)c4cc(F)cc(C)c43)cn2)CC1` [Example 63, 1-[4-(5-{5,5″-difluoro-2″,7-dimethyl-1H,2″H-[3,4″-biindazol]-1-yl}pyridin-2-yl)piperazin-1-yl]ethan-1-one], the “Delta TM” value in experiment [1] came out at 27.4 °C. Besides, the EC50 in experiment [2] is 96.8 nM.
As to `Cc1cccc2c(-c3c(F)cc(F)c4nn(C)c(F)c34)nn(-c3ccc(N4C[C@@H]5[C@H](C4)[C@H]5C(=O)O)nc3)c12` [Example 76, (1R,5S,6R)-3-(5-{3″,5″,7″-trifluoro-2″,7-dimethyl-1H,2″H-[3,4″- biindazol]-1-yl}pyridin-2-yl)-3-azabicyclo[3.1.0]hexane-6-carboxylic acid], the “Delta TM” value in experiment [1] was determined as 33.0 °C. Besides, it took 695 nM to reach a half-maximal effect in experiment [2] (EC50).
The like results for `CC(=O)N1C[C@@H]2C[C@H]1CN2c1ccc(-n2nc(-c3c(F)ccc4nn(C)cc34)c3cccc(C)c32)cn1` [Example 30, 1-[(1S,4S)-5-(5-{5″-fluoro-2″,7-dimethyl-1H,2″H-[3,4″-biindazol]-1-yl}pyridin-2-yl)-2,5-diazabicyclo[2.2.1]heptan-2-yl]ethan-1-one] were, in that order, 30.8 °C and 227 nM.
`Cc1cc(F)cc2c(-c3ccc(F)c4nn(C)cc34)nn(-c3ccc(N4C[C@@H]5[C@H](C4)[C@H]5C(=O)O)nc3)c12` [Example 12, (1R,5S,6R)-3-(5-{5,7″-Difluoro-2″,7-dimethyl-1H,2″H-[3,4″-biindazol]-1-yl}pyridin-2-yl)-3-azabicyclo[3.1.0]hexane-6-carboxylic acid]: the “Delta TM” value in experiment [1] turned out to be 21.7 °C. Besides, the EC50 in experiment [2] amounted to 609 nM.
As to `Cc1cccc2c(-c3c(F)ccc4nn(C)cc34)nn(-c3ccc(N4C[C@H]5C[C@@H]4C[C@@H]5C(=O)O)nc3)c12` [Example 27-2, (1R,4S,5S)-2-(5-{5″-fluoro-2″,7-dimethyl-1H,2″H-[3,4″-biindazol]-1-yl}pyridin-2-yl)-2-azabicyclo[2.2.1]heptane-5-carboxylic acid], in experiment [1], the “Delta TM” value was 35.6 °C. The molecule also returned an EC50 in experiment [2] of 247 nM.
In the case of `Cc1cccc2c(-c3ccc(F)c4nn(C)cc34)nn(-c3ccc(N4CCC(C(=O)O)CC4)nc3)c12` [Example 4, 1-(5-{7″-Fluoro-2″,7-dimethyl-1H,2″H-[3,4″-biindazol]-1-yl}pyridin-2-yl)piperidine-4-carboxylic acid], the “Delta TM” value in experiment [1] was determined as 31.0 °C. In experiment [2], this molecule registered an EC50 of 757 nM.
For `CC(=O)N1CCN(c2ccc(-n3nc(-c4cccc5nn(C)c(F)c45)c4cc(F)cc(C)c43)cn2)CC1` [Example 59, 1-[4-(5-{3″,5-difluoro-2″,7-dimethyl-1H,2″H-[3,4″-biindazol]-1-yl}pyridin-2-yl)piperazin-1-yl]ethan-1-one], in that order: 22.0 °C and 207 nM.
The like results for `Cc1cccc2c(-c3ccc(F)c4nn(C)c(F)c34)nn(-c3ccc(N4CCC(C(=O)O)CC4)nc3)c12` [Example 53, 1-(5-{3″,7″-difluoro-2″,7-dimethyl-1H,2″H-[3,4″-biindazol]-1-yl}pyridin-2-yl)piperidine-4-carboxylic acid] were, in that order, 33.0 °C and 654 nM.

These data come from patent US20240174641A1, “HETEROCYCLIC COMPOUNDS CAPABLE OF […]” (Boehringer Ingelheim International GmbH, priority 2022, published 2024).
